Laboratory results reported in article PMC2610419 (Chemical biology & drug design, 2006).
Numbering of substitutions follows the chain as printed. “Also recorded” adds a separate entry of the source. Square brackets hold non-standard residues; d marks the D form. Ends that are not written are not given here. pS = N[C@@H](COP(=O)(O)O)C(=O)O

Assays:
Set-up in all cases: species or system murine
Abl SH2 domain Arg45Gln = biological target: T1, Abl SH2 domain Arg45Gln (Mus musculus, UniProt P00520, R161Q); test: HSQC NMR titration ligand-binding assay, Arg45Gln mutant; conditions: read-out: Affinity in high salt, 135 mM KCl
T1 sequence (P00520 120-220 R161Q): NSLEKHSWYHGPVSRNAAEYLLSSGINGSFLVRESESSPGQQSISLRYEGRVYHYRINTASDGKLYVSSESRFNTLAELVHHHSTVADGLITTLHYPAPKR

Abl SH2 domain Arg59Gln = biological target: T2, Abl SH2 domain Arg59Gln (Mus musculus, UniProt P00520, R175Q); test: HSQC NMR titration ligand-binding assay, Arg59Gln mutant; conditions: for Affinity in high salt: 135 mM KCl; for Kd: read-out: Affinity in high salt, 135 mM KCl
T2 sequence (P00520 120-220 R175Q): T1 sequence (P00520 120-220 R161Q) with Q42R, R56Q

Abl SH2 domain Arg36Lys = biological target: T3, Abl SH2 domain Arg36Lys (Mus musculus, UniProt P00520, R152K); test: HSQC NMR titration ligand-binding assay, Arg36Lys mutant; conditions: 135 mM KCl
T3 sequence (P00520 120-220 R152K): T1 sequence (P00520 120-220 R161Q) with R33K, Q42R

[1] = biological target: T4, Abl SH2 domain (wild type) (Mus musculus, UniProt P00520); test: HSQC NMR titration ligand-binding assay, wild type Abl SH2 domain; conditions: for Affinity in high salt: 135 mM KCl, HSQC titration, ± standard error
T4 sequence (P00520 120-220): T1 sequence (P00520 120-220 R161Q) with Q42R

Row | Kd (Abl SH2 domain Arg45Gln) [µM] | Affinity in high salt (Abl SH2 domain Arg59Gln) | Kd (Abl SH2 domain Arg59Gln) [µM] | Affinity in high salt (Abl SH2 domain Arg36Lys) | Affinity in high salt [1] | Molecule | other results
1 | 900 ± 60 | almost completely disrupted | > 10000 | Not detectable |  | CCCC(=O)OC[C@H](COP(=O)(O)O[C@@H]1[C@H](O)[C@H](O)[C@@H](OP(=O)(O)O)[C@H](OP(=O)(O)O)[C@H]1O)OC(=O)CCC [diC4-PtdIns(4,5)P2, dibutanoyl (C4) PtdIns(4,5)P2] | Affinity in high salt (Abl SH2 domain Arg36Lys; listed as PtdIns(4,5)P2): abolished
2 |  |  |  |  | Not detectable | GQSSRV[pS]PSPTTY [BCR pSer354 peptide] | 
3 | 390 ± 13 | reduced to millimolar levels | 2500 ± 200 | abolished; also recorded: Not detectable |  | N[C@@H](Cc1ccc(OP(=O)(O)O)cc1)C(=O)O [pTyr, phosphotyrosine] | 
4 |  |  |  |  | very weak | phosphatidic acid [Phosphatidicacid] | 
5 |  |  |  |  |  | CCCCCCCC(=O)OC[C@H](COP(=O)(O)O[C@@H]1[C@H](O)[C@H](O)[C@@H](OP(=O)(O)O)[C@H](OP(=O)(O)O)[C@H]1O)OC(=O)CCCCCCC [diC8-PtdIns(4,5)P2, dioctanoyl (C8) PtdIns(4,5)P2] | stronger affinity of the C8 over C4 form of PtdIns(4,5)P2 ([1]; ratio of affinities): 1.6 fold

Row | Molecule | Kd (Abl SH2 domain Arg45Gln) [µM] | Affinity in high salt (Abl SH2 domain Arg59Gln) | Kd (Abl SH2 domain Arg59Gln) [µM] | Affinity in high salt (Abl SH2 domain Arg36Lys) | Affinity in high salt [1] | other results
6 | phosphatidylserine |  |  |  |  | Not detectable | Affinity in high salt ([1]; listed as PtdSer): very weak
